Laboratory results: patent US7445765B2, “Radiopharmaceutical for diagnostic imaging containing a technetium-99m nitride heterocomplex” (Nihon Medi-Physics Co., Ltd., priority 2000, dated 2008)

Key:
[1] = Biodistribution of the 99mTc(N) heterocomplexes in rats (organ uptake, heart accumulation, heart/lung and heart/liver ratios); type: in vivo, female Sprague-Dawley rats
Procedure, shortened: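 Female Sprague-Dawley rats (200–250 g, n=3), ketamine/xylazine anaesthesia, got 300–370 kBq of each purified heterocomplex in pH 7.4 phosphate buffer (10% ethanol) via the jugular vein. They were killed at several post-injection times. Heart blood and washed, weighed organs were gamma-counted, taking whole blood as 6.5% of body weight.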

[2] = Stability: ligand exchange reaction with cysteine or glutathione; type: physicochemical; details: phosphate buffer pH 7.4, 37° C., up to 2 hours, TLC
Description: The stability of the ^99mTc(N) heterocomplexes obtained using PNP3 as a bisphosphinoamine compound in Example 1 was confirmed by ligand exchange reaction with cysteine or glutathione.
250.0 μL of phosphate buffer solution (0.20 M, pH=7.4), 100 μL of water and 100 μL of each of the ^99mTc(N) heterocomplexes purified were mixed with 50 μL of each of cysteine solutions having different concentrations of 10 mM and 1.0 mM, and the resulting mixture was placed in a polypropylene test tube and incubated in a thermostat at 37° C. A blank solution was obtained by mixing an equal volume of water without addition of cysteine. Aliquots of the resulting solutions were withdrawn at 15 min, 30 min, 60 min and 2 hours after the start of the incubation, and analyzed by TLC. The same experiment as above was carried out except for using glutathione in place of cysteine. All the ^99mTc(N) heterocomplex samples were found stable against transchelation by cystein or glutathione.

[3] = Measurement of Log k′ (partition ratio) by HPLC, PNP3 heterocomplexes; type: physicochemical; details: HPLC C18, methanol/phosphate buffer (0.02M, pH 7.4), 1.0 mL/min; extrapolated to 0% organic solvent
Description: For the various ^99mTc(N) heterocomplexes synthesized using PNP3 as a bisphosphinoamine compound in Example 1, Log k′ values were determined at various compositions of a mobile phase for HPLC. As the mobile phase, mixtures of methanol and phosphate buffer (0.02M, pH=7.4) were used at a flow rate of 1.0 mL/min. For each sample, the retention time was measured at a minimum of three different methanol concentrations in the mobile phase. The Log k′ values at 0% organic solvent (Log k′0) were extrapolated from the linear part of the curve Log k′=a+bC, where C is the methanol concentration, and Log k′ is Log (tR-to)/to wherein tR is HPLC retension time (min). The column void time (t0) was regarded as being equal to the elution time of pertechnetic acid.

Biodistribution in rats: Adrenal glands ([1]; 0 min post injection): 2.68 ± 0.44 % ID/g
Biodistribution in rats: Blood ([1]; 0 min post injection): 0.55 ± 0.32 % ID/g
Biodistribution in rats: Brain ([1]; 0 min post injection): 0.23 ± 0.04 % ID/g
Biodistribution in rats: Heart ([1]; 0 min post injection): 3.57 ± 0.14 % ID/g
Biodistribution in rats: Intestine ([1]; 0 min post injection): 2.43 ± 0.49 % ID/g
Biodistribution in rats: Kidneys ([1]; 0 min post injection): 10.40 ± 2.16 % ID/g
Biodistribution in rats: Liver ([1]; 0 min post injection): 1.46 ± 0.05 % ID/g
Biodistribution in rats: Lungs ([1]; 0 min post injection): 1.54 ± 0.03 % ID/g
Biodistribution in rats: Muscle ([1]; 0 min post injection): 0.23 ± 0.04 % ID/g
Biodistribution in rats: Spleen ([1]; 0 min post injection): 1.84 ± 0.49 % ID/g
Biodistribution in rats: Submaxillary glands ([1]; 0 min post injection): 1.25 ± 0.47 % ID/g
Biodistribution in rats: Adrenal glands ([1]; 2 min post injection): 2.87 ± 1.00 % ID/g
Biodistribution in rats: Blood ([1]; 2 min post injection): 0.11 ± 0.01 % ID/g
Biodistribution in rats: Brain ([1]; 2 min post injection): 0.03 ± 0.00 % ID/g
Biodistribution in rats: Heart ([1]; 2 min post injection): 3.42 ± 0.19 % ID/g
Biodistribution in rats: Intestine ([1]; 2 min post injection): 7.42 ± 1.03 % ID/g
Biodistribution in rats: Kidneys ([1]; 2 min post injection): 11.57 ± 2.37 % ID/g
Biodistribution in rats: Liver ([1]; 2 min post injection): 1.72 ± 0.26 % ID/g
Biodistribution in rats: Lungs ([1]; 2 min post injection): 1.01 ± 0.49 % ID/g
Biodistribution in rats: Muscle ([1]; 2 min post injection): 0.23 ± 0.01 % ID/g
Biodistribution in rats: Spleen ([1]; 2 min post injection): 2.00 ± 0.07 % ID/g
Biodistribution in rats: Submaxillary glands ([1]; 2 min post injection): 1.27 ± 0.05 % ID/g
Biodistribution in rats: Adrenal glands ([1]; 10 min post injection): 2.30 ± 0.73 % ID/g
Biodistribution in rats: Blood ([1]; 10 min post injection): 0.03 ± 0.00 % ID/g
Biodistribution in rats: Brain ([1]; 10 min post injection): 0.02 ± 0.00 % ID/g
Biodistribution in rats: Heart ([1]; 10 min post injection): 3.65 ± 0.56 % ID/g
Biodistribution in rats: Intestine ([1]; 10 min post injection): 12.11 ± 2.92 % ID/g
Biodistribution in rats: Kidneys ([1]; 10 min post injection): 6.74 ± 0.63 % ID/g
Biodistribution in rats: Liver ([1]; 10 min post injection): 1.43 ± 0.47 % ID/g
Biodistribution in rats: Lungs ([1]; 10 min post injection): 0.77 ± 0.10 % ID/g
Biodistribution in rats: Muscle ([1]; 10 min post injection): 0.23 ± 0.07 % ID/g
Biodistribution in rats: Spleen ([1]; 10 min post injection): 1.28 ± 0.12 % ID/g
Biodistribution in rats: Submaxillary glands ([1]; 10 min post injection): 1.42 ± 0.24 % ID/g
Biodistribution in rats: Adrenal glands ([1]; 20 min post injection): 2.69 ± 0.37 % ID/g
Biodistribution in rats: Blood ([1]; 20 min post injection): 0.02 ± 0.01 % ID/g
Biodistribution in rats: Brain ([1]; 20 min post injection): 0.02 ± 0.01 % ID/g
Biodistribution in rats: Heart ([1]; 20 min post injection): 3.32 ± 0.18 % ID/g
Biodistribution in rats: Intestine ([1]; 20 min post injection): 13.03 ± 3.19 % ID/g
Biodistribution in rats: Kidneys ([1]; 20 min post injection): 6.12 ± 0.11 % ID/g
Biodistribution in rats: Liver ([1]; 20 min post injection): 0.87 ± 0.52 % ID/g
Biodistribution in rats: Lungs ([1]; 20 min post injection): 0.84 ± 0.06 % ID/g
Biodistribution in rats: Muscle ([1]; 20 min post injection): 0.13 ± 0.02 % ID/g
Biodistribution in rats: Spleen ([1]; 20 min post injection): 0.92 ± 0.10 % ID/g
Biodistribution in rats: Submaxillary glands ([1]; 20 min post injection): 1.32 ± 0.21 % ID/g
Biodistribution in rats: Adrenal glands ([1]; 30 min post injection): 2.94 ± 0.18 % ID/g
Biodistribution in rats: Blood ([1]; 30 min post injection): 0.02 ± 0.00 % ID/g
Biodistribution in rats: Brain ([1]; 30 min post injection): 0.02 ± 0.02 % ID/g
Biodistribution in rats: Heart ([1]; 30 min post injection): 3.27 ± 0.36 % ID/g
Biodistribution in rats: Intestine ([1]; 30 min post injection): 13.41 ± 4.62 % ID/g
Biodistribution in rats: Kidneys ([1]; 30 min post injection): 5.67 ± 0.39 % ID/g
Biodistribution in rats: Liver ([1]; 30 min post injection): 0.42 ± 0.01 % ID/g
Biodistribution in rats: Lungs ([1]; 30 min post injection): 0.69 ± 0.12 % ID/g
Biodistribution in rats: Muscle ([1]; 30 min post injection): 0.24 ± 0.08 % ID/g
Biodistribution in rats: Spleen ([1]; 30 min post injection): 0.95 ± 0.02 % ID/g
Biodistribution in rats: Submaxillary glands ([1]; 30 min post injection): 1.49 ± 0.22 % ID/g
Biodistribution in rats: Adrenal glands ([1]; 60 min post injection): 2.17 ± 0.35 % ID/g
Biodistribution in rats: Blood ([1]; 60 min post injection): 0.01 ± 0.00 % ID/g
Biodistribution in rats: Brain ([1]; 60 min post injection): 0.01 ± 0.00 % ID/g
Biodistribution in rats: Heart ([1]; 60 min post injection): 3.27 ± 0.62 % ID/g
Biodistribution in rats: Intestine ([1]; 60 min post injection): 4.39 ± 2.86 % ID/g
Biodistribution in rats: Kidneys ([1]; 60 min post injection): 4.24 ± 0.53 % ID/g
Biodistribution in rats: Liver ([1]; 60 min post injection): 0.16 ± 0.05 % ID/g
Biodistribution in rats: Lungs ([1]; 60 min post injection): 0.34 ± 0.11 % ID/g
Biodistribution in rats: Muscle ([1]; 60 min post injection): 0.17 ± 0.01 % ID/g
Biodistribution in rats: Spleen ([1]; 60 min post injection): 0.42 ± 0.11 % ID/g
Biodistribution in rats: Submaxillary glands ([1]; 60 min post injection): 1.29 ± 0.28 % ID/g
Biodistribution in rats: Adrenal glands ([1]; 120 min post injection): 2.53 ± 0.27 % ID/g
Biodistribution in rats: Blood ([1]; 120 min post injection): 0.01 ± 0.00 % ID/g
Biodistribution in rats: Brain ([1]; 120 min post injection): 0.01 ± 0.00 % ID/g
Biodistribution in rats: Heart ([1]; 120 min post injection): 3.00 ± 0.42 % ID/g
Biodistribution in rats: Intestine ([1]; 120 min post injection): 7.03 ± 2.61 % ID/g
Biodistribution in rats: Kidneys ([1]; 120 min post injection): 3.48 ± 0.61 % ID/g
Biodistribution in rats: Liver ([1]; 120 min post injection): 0.12 ± 0.03 % ID/g
Biodistribution in rats: Lungs ([1]; 120 min post injection): 0.27 ± 0.05 % ID/g
Biodistribution in rats: Muscle ([1]; 120 min post injection): 0.36 ± 0.15 % ID/g
Biodistribution in rats: Spleen ([1]; 120 min post injection): 0.21 ± 0.03 % ID/g
Biodistribution in rats: Submaxillary glands ([1]; 120 min post injection): 1.59 ± 0.19 % ID/g
Stability [2]: Stable
Log k′ (partition ratio) [3]: 3.82
SMILES: CCOCCN(CCOCC)C1=[S][99Tc+]2(#[N])([S]1)[P](CCCOC)(CCCOC)CCN(CCOC)CC[P]2(CCCOC)CCCOC [[^99mTc(N) (PNP3) (DBODC)]^+]
